Source: US7265139B2, “RXR activating molecules” (Incyte San Diego Inc., priority 2001, dated 2007)

What was measured:
[1] = test system: Mouse 3T3-L1 preadipocytes; assay: 3T3-L1 adipocyte differentiation assay; type: cell-based; details: 0.1 μM compared to Compound 1 at equal concentration; pre-adipocytes to adipocytes
Protocol: Mouse 3T3-L1 cells were grown in 96-well tissue culture plates containing growing medium (DME containing 10% calf serum (CS) plus glutamine-pen-strep) at a density of 3,000 cells/well. Two days after reaching confluence, cells are treated with the different compounds in DM (Day 0). Compound 1 is included in all the experiments, and its ability to differentiate 3T3-L1 cells at 0.1 μM is taken as reference for 100% differentiation. After 7 days the lipid content of the cells was determined.
Prior to testing compounds in vivo, they can be run through the in vitro adipocyte differentiation assay based on the protocol of Zhang, et al. (1996) Negative Regulation of Peroxisome Proliferator—Activated Receptor—γGene Expression Contributes to the Antiadipogenic effects of Tumor Necrosis Factor—α. Mol. Endo. 10:1457-1456, incorporated herein by reference. In short, mouse 3T3-L1 preadipocytes are grown in culture medium containing 10% calf serum supplemented with antibiotics. Two days after reaching confluence, cells are treated with the selected compound at different concentrations dissolved in medium containing 10% fetal calf serum supplemented with antibiotics and kept at 10% CO2. The test compounds are replaced every 2-3 days. Differentiation is assessed after 7 days of treatment by the lipid content in the cells, using the Triglyceride (INFINITY) reagent (Sigma Chemical, St. Louis, Mo.).
The ability of a compound to induce preadipocytes to differentiate into adipocytes is an indicator of its antidiabetic activity. This allows for screening many compounds in a simple in vitro assay, thus avoiding the task of testing all compounds in vivo. The adipocyte differentiation assay is based on the protocol of Zhang, et al. (1996) Negative Regulation of Peroxisome Proliferator-Activated Receptor-γ Gene Expression Contributes to the Antiadipogenic effects of Tumor Necrosis Factor—α. Mol. Endo. 10:1457-1456, incorporated herein by reference at least for material related to adipocyte differentiation assays. Mouse 3T3-L1 preadipocytes are grown in culture medium containing 10% calf serum supplemented with antibiotics. Two days after reaching confluence, cells are treated with the selected compound at different concentrations dissolved in medium containing 10% fetal calf serum supplemented with antibiotics and kept at 10% CO2. The test compounds are replaced every 2-3 days. Differentiation is assessed after 7 days of treatment by the lipid content in the cells, using the Triglyceride (INFINITY) reagent (Sigma Chemical, St. Louis, Mo.) (see FIG. 15).

KKA^y mice = assay: Antidiabetic activity in type 2 diabetic KKA^y mice; type: in vivo, mouse; details: for Efficacious in KKAy Mice: efficacious = lowers glucose without increasing triglycerides
Protocol: Prior to commencing treatment, all of the animals are bled from the tail vein and serum levels of glucose and triglyceride are measured in duplicate. The animals are then sorted into different treatment groups with equal average triglyceride levels. The animals are treated with a single daily oral dose of the test compound suspended in sesame oil (dose volume of 3 ml/kg).
In short, adult diabetic KKA^y mice are housed in a fixed 12—12-hr artificial light-dark cycle, and maintained on a standard rodent diet. Prior to commencing treatment, all of the animals are bled from the tail vein and serum levels of glucose and triglyceride are measured in duplicate. The animals are then sorted into different treatment groups with equal average triglyceride levels. The animals are treated with a single daily oral dose ranging from 3-30 mg/kg of the test compound suspended in sesame oil (dose volume of 3-5 ml/kg). Following one week of treatment the animals are bled from the tail vein and Serum glucose and triglycerides are measured in duplicate.
In this example, compound 1, which belongs to the novel subclass of RXR ligands is compared to a typical RXR ligand like compound 2 in the treatment of KKA^y mice.
For this study, adult diabetic KKA^y mice were housed in a fixed 12—12-hr artificial light-dark cycle, and maintained on a standard rodent diet. Prior to commencing treatment, all of the animals are bled from the tail vein and serum levels of glucose and triglyceride are measured in duplicate. The animals are then sorted into different treatment groups with equal average triglyceride levels. The animals are treated with a single daily oral dose of the test compound suspended in sesame oil (dose volume of 3 ml/kg).

BALB/c mice = assay: Effect on serum triglyceride levels in wild type BALB/c mice; type: in vivo, mouse; details: FIG. 13, p≦0.01
Protocol: The animals were treated with a single daily oral dose of the test compound suspended in sesame oil (dose volume of 5 ml/kg). […], Animas treated with 10 and 30 mg/kg of Compound 1, which are doses that are 30 and 100 times the efficacious does in diabetic db/db mice, respectively, caused no increase in serum triglyceride levels compared to vehicle treated control animals.
Test compounds are tested in wild type mice at 10-100 times the efficacious dose in diabetic mice. Typically, adult male BALB/c mice are housed in a fixed 12—12-hr artificial light-dark cycle, and maintained on a standard rodent diet. The animals are treated with a single daily oral dose of the test compound suspended in sesame oil (dose volume of 5 ml/kg) as also described in the examples. Approximately two weeks later the animals are bled from the tail vein, then necropsied following sacrifice by carbon dioxide asphyxiation. Several serum biochemical parameters are measured. Of special significance is the effect the selected compounds have on serum triglyceride levels compared to vehicle treated control animals.
For these studies, adult male BALB/c mice were housed in a fixed 12—12-hr artificial light-dark cycle, and maintained on a standard rodent diet. The animals were treated with a single daily oral dose of the test compound suspended in sesame oil (dose volume of 5 ml/kg).

db/db mice = details: at the concentrations used in the KKA^y study; cited from earlier work
RXR receptor = molecular target: T1, RXR receptor (Homo sapiens, UniProt P19793); assay: RXR activation (transient transfection reporter assay); type: cell-based; details: 1 μM compared to 9-cis-RA at equal concentration
T1 construct: expressed in transfected cells
T1 sequence (P19793 1-462): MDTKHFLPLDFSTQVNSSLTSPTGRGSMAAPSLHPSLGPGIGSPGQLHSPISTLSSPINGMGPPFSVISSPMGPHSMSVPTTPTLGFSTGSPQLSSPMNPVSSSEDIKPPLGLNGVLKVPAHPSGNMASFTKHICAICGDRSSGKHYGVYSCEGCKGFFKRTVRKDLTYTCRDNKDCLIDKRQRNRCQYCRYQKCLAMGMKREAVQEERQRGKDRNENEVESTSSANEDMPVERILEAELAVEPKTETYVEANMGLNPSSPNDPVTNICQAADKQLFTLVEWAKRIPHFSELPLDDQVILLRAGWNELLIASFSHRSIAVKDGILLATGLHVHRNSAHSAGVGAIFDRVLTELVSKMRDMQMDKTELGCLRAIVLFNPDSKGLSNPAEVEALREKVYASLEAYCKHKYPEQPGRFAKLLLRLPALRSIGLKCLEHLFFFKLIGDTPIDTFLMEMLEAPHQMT
Text: RXR agonists activate the RXR receptor when interacting with RXR by binding to its binding pocket. This activation can be independent of whether the agonist, while interacting with portions of the ligand binding pocket, also interacts with side pocket 1. Activation, also often referred to as transcriptional activation, of RXR by agonists can be measured by a number of commonly used assays where the effect of the agonist ligand interacting with the RXR ligand binding pocket is to stimulate or induce transcription of a gene or genes in a cell. In one particular embodiment, transient transfection experiments (as described essentially by Zhang, et al. (1996) Negative Regulation of Peroxisome Proliferator—Activated Receptor—γ Gene Expression Contributes to the Antiadipogenic effects of Tumor Necrosis Factor—α. Mol. Endo. 10:1457-1456) can be used. In these cases, full length RXR proteins are expressed in living cells. Alternatively, hybrid proteins that contain a portion of another DNA binding domain and the ligand binding portion of the human RXRα receptor can be expressed in living cells instead of the full length RXR protein. Such hybrid proteins can bind to and activate specific reporter genes introduced into the same living cell and activation of such reporter genes is measured. The assays described here are very commonly used today by people skilled in the art of molecular biology experimenting. Transient transection assays are often used instead of ligand binding assays and can serve to measure or estimate an affinity of an RXR agonist ligand for RXR protein. The effective dose fifty (ED50, also called EC50) is the concentration of the ligand necessary to lead to one half maximal activation of the reporter gene in a living cell. Compounds that show 60% of the activity of the agonist 9-cis retenoic acid at 10^−6 M can be considered an RXR activator/agonist. Compounds which show 70% 80% 90% of the activity of the agonist 9-cis retinoic acid are also provided.
To confirm that the computer modeling/design of a compound does result in an RXR activator or RXR agonist, i.e. a compound that leads to RXR activation or transcriptional activation, commonly used assays can be applied, where the effect of the agonist or activator, interacting with the RXR ligand binding pocket is to stimulate or induce transcription of a gene or genes in a cell. In one particular embodiment, transient transfection experiments (as described essentially by Zhang, et al. (1996) Negative Regulation of Peroxisome Proliferator—Activated Receptor—γ Gene Expression Contributes to the Antiadipogenic effects of Tumor Necrosis Factor—α. Mol. Endo. 10:1457-1456) can be used. In these cases, full length RXR proteins are expressed in living cells. Alternatively, hybrid proteins that contain a portion of another DNA, binding domain and the ligand binding portion of the human RXRα receptor can be expressed in living cells instead of the fall length RXR protein. Such hybrid proteins can bind to and activate specific reporter genes introduced into the same living cell and activation of such reporter genes is measured (Brand, A. H. & Perrimon, 1993, Development, 118:401-415; Moya-Camarena, S. Y. et.al., 1999, J. Lipid Res., 40:1426:1433; Yi, Y. W. et al., 2000, Biochem. Biophys. Res. Commun., 272:193-198, each are herein incorporated by reference at least for material related to reporter assays). These assays not only measure binding of the ligand to its target, which could also be measured by an in vitro binding assay, but also measure the agonistic or activator activity of the compound. In such an assay, new compounds are compared to a standard activator like compound I or the natural agonist of RXR: 9-cis retinoic acid (see Example 7). For instance, all compounds that show at a given concentration at least 60% of the activity of 9-cis retinoic acid can be considered useful activators.

[2] = following two weeks of treatment

Structure (SMILES)	Differentiation Activity [1]	Efficacious in KKAy Mice (KKA^y mice)	RXR Activation (RXR receptor)	other results
CO/N=C1\CCC(C)(C)c2cc(C)c(-c3cc(/C=C4\SC(=O)NC4=O)ccc3N(C)C)cc21				melting point: 254 to 256 °C
CO/N=C1\CCC(C)(C)c2cc(C)c(-c3cc(/C=C4\SC(=O)NC4=O)ccc3Cl)cc21				melting point: 252 to 254 °C
C=C(c1ccc(C(=O)O)cc1)c1cc2c(cc1C)C(C)(C)CCC2(C)C [Compound 2, reference compound]	>100%	No		serum glucose levels compared to vehicle treated controls (KKA^y mice; 5 and 15 mg/kg, single daily oral dose in sesame oil, FIG. 10): no difference; serum triglyceride levels compared to vehicle treated controls (KKA^y mice; 5 and 15 mg/kg, single daily oral dose, FIG. 11, statistically significant at 5 mg/kg): increase; glucose levels compared to vehicle treated controls (KKA^y mice; [2]): failed to decrease; triglyceride levels compared to vehicle treated controls (KKA^y mice; [2]): significantly increased; serum triglyceride levels compared to vehicle treated control animals (BALB/c mice; 50 and 100 mg/kg, daily oral, statistically significant at 100 mg/kg): increase; serum triglyceride levels compared to vehicle treated controls (BALB/c mice; similar excess over its effective glucose lowering dose in db/db mice): statistically significant, dose dependent increase; glucose levels in type 2 diabetic db/db mice (db/db mice): lower; triglyceride levels in type 2 diabetic db/db mice (db/db mice): lower
Cc1cc2c(cc1-c1cc(C=C3SC(=O)NC3=O)ccc1N(C)C)C(C)(C)CCC2(C)C [Compound 3]	100%	Yes	120%	
Cc1cc2c(cc1-c1cc(C=C3SC(=O)NC3=O)ccc1O)C(C)(C)CCC2(C)C [Compound 4]	>100%	No	>100%	
Cc1cc2c(cc1C1(c3ccc(C(=O)O)cn3)CC1)C(C)(C)CCC2(C)C [Compound 5]	>100%	No		
COc1ccc(C=C2SC(=O)NC2=O)cc1-c1cc2c(cc1C)C(C)(C)CCC2(C)C [Compound 6]	>100%	No	>100%	
CON=C1CCC(C)(C)c2cc(C)c(-c3cc(C=C4SC(=O)NC4=O)ccc3OC(F)(F)F)cc21 [Compound 7]	80%	Yes	100%	glucose lowering activity (KKA^y mice; FIG. 16): glucose lowering activity; triglyceride lowering activity (KKA^y mice; FIG. 17): triglyceride lowering activity
CCN1C(=O)CC(C)(C)c2cc(C)c(-c3cc(/C=C4\SC(=O)NC4=O)ccc3OC(F)(F)F)cc21 [Compound 8, 5-[3-(1-Ethyl-4,4,6-trimethyl-2-oxo-1,2,3,4-tetrahydro-quinolin-7-yl)-4-trifluoromethoxy-benzylidene]-thiazolidine-2,4-dione]	95%	Yes	90%	
CC(C)Cc1cc(-c2cc(C=C3SC(=O)NC3=O)ccc2OC(F)(F)F)c2c(c1)C(C)(C)CO2 [Compound 9]	30%	Yes	125%	
CO/N=C1\CCC(C)(C)c2cc(C)c(-c3cc(/C=C4\SC(=O)NC4=O)ccc3OC(F)(F)F)cc21 [Example 8, 3-[(1-Oxo-4,4,6-trimethyl-1,2,3,4-tetrahydronaphthalene-7-yl)-O-methyloxime]-4-trifluoromethoxy-benzylidene-2,4-thiazolidinedione]				melting point: 224 °C
